In patent US9783513B2, “STAT3 inhibitors and their anticancer use” (Ohio State Innovation Foundation, priority 2012, dated 2017):
Where two headings read alike, the source gives them in different places.

What was measured:
[1] = system: STAT3 nuclear translocation; test: Immunofluorescence assay, nuclear translocation; format: cell-based, human; conditions: SJSA; 1 or 2.5 μM; 4 h
Method: Cells seeded on glass slides in 6-well plate were cultured in serum-free medium for 24 hours. After the cell density reached about 80%, cells were pretreated with LY5 (1 or 2.5 μM) for 4 hours followed by IL-6 or IFN-γ (50 ng/ml), for 30 min, and were fixed with cold methanol for 15 min. After washing in phosphate-buffered saline (PBS), the slides were blocked with 5% normal goat serum and 0.3% Triton X-100 in PBS (PBST) for 1 hour. The slides were incubated with primary antibodies (1:100) against STAT3 or P-STAT1 proteins (Cell Signaling Technology) overnight at 4° C. Then, the slides were washed with PBST and incubated with goat anti-rabbit FIFC-conjugated secondary antibody (Invitrogen, 1:200). The cells were mounted with Vectashield Hardset mounting medium with DAPI (Vector Laboratories, Burlingame, Calif., USA). Photomicrographs were captured by Leica Microsystems (Bannockburn, Ill., USA).

HUVEC [2] = test: Matrigel invasion assay; format: cell-based, human; conditions: 300 nM
Method: The Matrigel invasion assays were carried out using Matrigel precoated inserts (BD Bioscience) following the manufacturer's instructions. Six hundred μl of M200 medium with or without VEGF (20 ng/ml, R&D Systems) was placed in the lower wells. Proliferating HUVECs (4×10^5 cells/ml) were pretreated with LY5 (300 nM) and 100 μl of cell suspension was loaded into each of the upper wells. The chambers were incubated for 18-20 hr at 37° C. After incubation, the inserts were removed, and the non-invading cells on the upper surface were removed with a cotton swab. The cells on the lower surface of the membrane were fixed in 100% methanol for 15 minutes, air-dried, and stained with Diff-Quik stain for 2 min. The cells were counted in six individual high-power fields for each membrane condition under a light microscope. Assays were performed in triplicate for each treatment group and the results were expressed as migrated cells per field for each condition.

[3] = system: human sarcoma cell line RH30; test: Cell viability (MTT) assay, RH30; format: cell-based
Method: Human sarcoma cell lines (RD2, RH30, U2OS) were seeded in 96-well plates at a density of 3,000 cells per well. The cells were incubated at 37° C. for a period of 24 hours. Different concentrations of LY-5 (0.1-10 μM), LY-3 (0.1-20 μM), and LLL12 (0.1-10 μM) prepared as a 20 mM stock solution in sterile DMSO were added in triplicate to the plates in the presence of 10% FBS. 3-(4,5-Dimethylthiazolyl)-2, 5-diphenyltetrazoliumbromide (MTT) was added to evaluate cell viability. The absorbance was read at 595 nm. IC50 values were determined using SigmaPlot 9.0 Software (Systat Software, Inc., San Jose, Calif.).
Alternatively, cells were seeded in 96-well plates in triplicate at a density of 3,000 cells per well and given 24 hours to adhere. Cells were then treated with varying concentrations of the inhibitors in the presence of 10% FBS. The cells were incubated for 72 hours at 37° C. 25 μl of MTT dye (Sigma, #M5655) was added to each sample and incubated for 3.5 hours. After this, 100 μl of N,N-dimethylformamide (Sigma, #D4551) solubilization solution was added to each well. The absorbance at 450 nm was read the following day. Half-Maximal inhibitory concentrations (IC50) were determined using Sigma Plot 9.0 software (Systat Software Inc.).
Table 7 below lists specific compounds as well as experimentally determined STAT3 activity in a cell-based assay. The STAT3 activity was determined using the cell viability assays with human sarcoma cell lines (RD2, RH30, U2OS) as described above. The compound reference numbers (“Ref. No.”) in Table 7 correspond to the compound numbers used in Table 3.

[4] = system: OSM induced STAT3 phosphorylation; test: Western blot, OSM induced STAT3 phosphorylation; format: cell-based, human
HUVEC [5] = test: HUVEC tube formation assay; format: cell-based, human; conditions: 300 nM
Method: The Endothelial Tube Formation Assay (CBA200, Cell Biolabs Inc., San Diego, Calif., USA) was used in addition to the HUVEC proliferation assay. The ECM gel was thawed at 4° C. and mixed to homogeneity using cooled pipette tips. Cell culture plates (96-well) were bottom-coated with a thin layer of ECM gel (50 μl/well), which was left to polymerize at 37° C. for 60 min. HUVEC (2-3×10^4 cells) were stimulated with VEGF in 150 μl medium and added to each well on the solidified ECM gel. Culture medium was added to each well in the presence or absence of LY5. The plates were incubated at 37° C. for 12-18 hours and the endothelial tubes were quantified using a fluorescent microscope after staining with Calcein AM. Three microscope fields were selected at random and photographed. Tube forming ability was quantified by counting the total number of cell clusters and branches under a 4× objective and […] per well. The results are expressed as mean fold change of branching compared with the control groups. Each experiment was performed at least three times. The 3D in vitro angiogenesis assay was performed essentially as described by manufactures instructions (promo cell). […] The spheroids were photographed after 24 hours and sprout formation assessed as described.

STAT3 SH2 domain = STAT3 SH2 domain (Homo sapiens, UniProt P40763); test: Fluorescence polarization (FP) assay; format: binding
Sequence of STAT3 SH2 domain (P40763 580-670 limits assumed): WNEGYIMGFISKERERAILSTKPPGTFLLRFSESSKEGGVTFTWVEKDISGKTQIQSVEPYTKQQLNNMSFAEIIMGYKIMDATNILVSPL
Method: Screening was performed at physiologically relevant temperature 37° C. Before each experiment, Compound LY-5 was prepared freshly from the stock solution. Compound LY-5 increased its background fluorescence reading at 595 nm at high concentrations, so the control solutions for each concentration were prepared by mixing buffer, LY-5, and fluorescence-labeled peptides together.
Screening was performed at approximately 37° C. STAT3 protein was used at 300 nM. The final concentration of buffer components used for all FP assays was 10 mM HEPES (pH 7.5), 1 mM EDTA, 0.1% Nonidet P-40, 50 mM NaCl, and 20% DMSO. Dithiothreitol was not added. LP-5 was diluted to a series of concentrations (1-200 μM) from a 20 mM stock in DMSO. Proteins were incubated with LP-5 in Eppendorf tubes at room temperature for 60 min prior addition of the 5-carboxyfluorescein labeled peptides. The final concentration of labeled peptide is 10 nM. The mixtures were transferred to a 384 Well Costar Black plate with each concentration repeated in three wells. The mixtures were equilibrated in the incubator at 37° C. for at least 30 min. The FP readings were measured and the experiments were repeated three times. Inhibition curves with standard deviation were fitted and Ki value was determined accordingly.

NS(=O)(=O)c1cccc2c1C(=O)C=C(Nc1cccnc1)C2=O [LY-5, 5,8-dioxo-6-(pyridin-3-ylamino)-5,8-dihydronaphthalene-1-sulfonamide]
IFN-γ induced STAT3 nuclear translocation [1]: does not inhibit
IL-6 induced STAT3 nuclear translocation [1]: inhibits
HUVECs invasion through Matrigel coated membranes (HUVEC [2]): prevented
IC50 ([3]; Table 7, read-out: IC50 RH30): 550 nM
IC50 ([3]; Table 8, read-out: IC50 values vs. cell lines, RH30): 550 nM
OSM induced STAT3 phosphorylation ([4]; MCF-7, 1-2.5 μM, OSM 50 ng/mL): inhibit
OSM induced STAT3 phosphorylation at Y705 ([4]; SJSA, 0-2.5 μM, 3 h): inhibits
VEGF induced HUVEC tube formation (HUVEC [5]): inhibits
binding to STAT3 SH2 protein (STAT3 SH2 domain; 37° C., FIG. 8): binds
Ki (STAT3 SH2 domain; 37° C., STAT3 300 nM, labeled peptide 10 nM): 2500 nM
experimental ΔG value (STAT3 SH2 domain; from FP Ki): -7.9 kcal/mol
